The source of these data is PMC12630686, “A degron-mimicking molecular glue drives CRBN homo-dimerization and degradation” (Nature Communications, 2025).

Test [1] deals with T1, Cereblon (CRBN) (Homo sapiens, UniProt Q96SW2). Kind of test: TR-FRET displacement of Cy5-thalidomide from CRBN-DDB1. Type of test: binding. On the set-up: 6xHis-CRBN-DDB1 complex; with DDB1. (In general: In TR-FRET formats the signal depends on donor and acceptor labels being close together.)
Target sequence in this assay (Q96SW2 40-442): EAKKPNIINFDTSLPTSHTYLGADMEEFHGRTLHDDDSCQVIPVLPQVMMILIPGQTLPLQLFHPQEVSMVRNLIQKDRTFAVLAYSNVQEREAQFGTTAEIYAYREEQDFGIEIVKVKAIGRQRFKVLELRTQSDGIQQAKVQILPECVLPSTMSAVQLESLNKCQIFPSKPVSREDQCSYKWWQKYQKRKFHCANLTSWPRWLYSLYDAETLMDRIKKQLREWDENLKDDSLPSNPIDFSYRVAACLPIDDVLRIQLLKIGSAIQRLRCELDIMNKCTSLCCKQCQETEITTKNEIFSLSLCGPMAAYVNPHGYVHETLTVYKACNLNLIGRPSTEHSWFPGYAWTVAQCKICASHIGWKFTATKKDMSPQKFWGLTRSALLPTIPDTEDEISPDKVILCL
Target sequence in this assay (Q16531 whole entry partner): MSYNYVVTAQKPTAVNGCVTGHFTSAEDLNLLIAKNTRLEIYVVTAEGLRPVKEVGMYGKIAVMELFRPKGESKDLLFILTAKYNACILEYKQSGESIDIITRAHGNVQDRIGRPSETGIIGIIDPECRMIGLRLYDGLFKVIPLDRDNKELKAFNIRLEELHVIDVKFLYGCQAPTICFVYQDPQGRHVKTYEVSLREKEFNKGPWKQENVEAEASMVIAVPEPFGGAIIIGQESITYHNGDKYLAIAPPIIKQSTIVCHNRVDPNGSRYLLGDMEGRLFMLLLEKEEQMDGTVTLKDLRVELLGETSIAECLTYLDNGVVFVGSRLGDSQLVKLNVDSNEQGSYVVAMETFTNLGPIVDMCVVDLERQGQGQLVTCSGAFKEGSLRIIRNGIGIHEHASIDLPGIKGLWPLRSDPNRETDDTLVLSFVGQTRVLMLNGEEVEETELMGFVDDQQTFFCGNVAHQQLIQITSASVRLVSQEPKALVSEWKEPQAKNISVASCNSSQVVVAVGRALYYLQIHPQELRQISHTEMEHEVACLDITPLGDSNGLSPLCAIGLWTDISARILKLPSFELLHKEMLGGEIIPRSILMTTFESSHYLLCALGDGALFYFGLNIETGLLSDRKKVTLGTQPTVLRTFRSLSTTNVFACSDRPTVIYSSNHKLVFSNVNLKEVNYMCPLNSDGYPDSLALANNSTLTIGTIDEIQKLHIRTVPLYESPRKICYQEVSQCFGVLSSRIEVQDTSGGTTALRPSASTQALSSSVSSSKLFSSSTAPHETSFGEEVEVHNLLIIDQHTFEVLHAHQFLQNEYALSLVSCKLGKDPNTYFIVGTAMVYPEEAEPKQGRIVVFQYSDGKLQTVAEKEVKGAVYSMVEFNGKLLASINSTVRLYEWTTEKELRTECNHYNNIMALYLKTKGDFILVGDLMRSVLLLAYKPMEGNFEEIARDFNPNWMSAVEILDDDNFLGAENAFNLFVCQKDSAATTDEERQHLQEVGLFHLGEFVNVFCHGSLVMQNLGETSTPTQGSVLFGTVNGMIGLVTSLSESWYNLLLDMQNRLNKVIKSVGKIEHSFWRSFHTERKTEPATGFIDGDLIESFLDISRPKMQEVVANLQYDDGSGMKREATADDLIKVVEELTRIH
Test [2] deals with T1, Cereblon (CRBN). Kind of test: cryo-EM structure ([…] Å and […] Å); TR-FRET thalidomide displacement (IC50); FIDA and SEC-MALS. The test is classed as binding. On the set-up: 6xHis-CRBN-DDB1 complex (per checker note), TR-FRET thalidomide displacement; not the cryo-EM CRBN 41-442/DDB1ΔBPB homodimer.
Target sequence in this assay (Q96SW2 whole entry): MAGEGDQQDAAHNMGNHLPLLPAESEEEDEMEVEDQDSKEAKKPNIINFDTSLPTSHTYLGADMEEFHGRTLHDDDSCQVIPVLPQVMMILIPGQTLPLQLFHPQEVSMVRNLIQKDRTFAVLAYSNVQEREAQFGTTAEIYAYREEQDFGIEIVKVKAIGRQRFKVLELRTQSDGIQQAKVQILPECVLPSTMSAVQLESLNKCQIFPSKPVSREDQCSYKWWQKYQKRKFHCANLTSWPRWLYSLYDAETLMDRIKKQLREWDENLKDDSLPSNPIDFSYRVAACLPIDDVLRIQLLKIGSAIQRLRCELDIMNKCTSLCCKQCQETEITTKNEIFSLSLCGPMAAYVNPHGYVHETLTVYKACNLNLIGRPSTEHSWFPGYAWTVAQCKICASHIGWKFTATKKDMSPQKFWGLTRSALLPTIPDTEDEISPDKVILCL
Target sequence in this assay (Q16531 2-1140 partner): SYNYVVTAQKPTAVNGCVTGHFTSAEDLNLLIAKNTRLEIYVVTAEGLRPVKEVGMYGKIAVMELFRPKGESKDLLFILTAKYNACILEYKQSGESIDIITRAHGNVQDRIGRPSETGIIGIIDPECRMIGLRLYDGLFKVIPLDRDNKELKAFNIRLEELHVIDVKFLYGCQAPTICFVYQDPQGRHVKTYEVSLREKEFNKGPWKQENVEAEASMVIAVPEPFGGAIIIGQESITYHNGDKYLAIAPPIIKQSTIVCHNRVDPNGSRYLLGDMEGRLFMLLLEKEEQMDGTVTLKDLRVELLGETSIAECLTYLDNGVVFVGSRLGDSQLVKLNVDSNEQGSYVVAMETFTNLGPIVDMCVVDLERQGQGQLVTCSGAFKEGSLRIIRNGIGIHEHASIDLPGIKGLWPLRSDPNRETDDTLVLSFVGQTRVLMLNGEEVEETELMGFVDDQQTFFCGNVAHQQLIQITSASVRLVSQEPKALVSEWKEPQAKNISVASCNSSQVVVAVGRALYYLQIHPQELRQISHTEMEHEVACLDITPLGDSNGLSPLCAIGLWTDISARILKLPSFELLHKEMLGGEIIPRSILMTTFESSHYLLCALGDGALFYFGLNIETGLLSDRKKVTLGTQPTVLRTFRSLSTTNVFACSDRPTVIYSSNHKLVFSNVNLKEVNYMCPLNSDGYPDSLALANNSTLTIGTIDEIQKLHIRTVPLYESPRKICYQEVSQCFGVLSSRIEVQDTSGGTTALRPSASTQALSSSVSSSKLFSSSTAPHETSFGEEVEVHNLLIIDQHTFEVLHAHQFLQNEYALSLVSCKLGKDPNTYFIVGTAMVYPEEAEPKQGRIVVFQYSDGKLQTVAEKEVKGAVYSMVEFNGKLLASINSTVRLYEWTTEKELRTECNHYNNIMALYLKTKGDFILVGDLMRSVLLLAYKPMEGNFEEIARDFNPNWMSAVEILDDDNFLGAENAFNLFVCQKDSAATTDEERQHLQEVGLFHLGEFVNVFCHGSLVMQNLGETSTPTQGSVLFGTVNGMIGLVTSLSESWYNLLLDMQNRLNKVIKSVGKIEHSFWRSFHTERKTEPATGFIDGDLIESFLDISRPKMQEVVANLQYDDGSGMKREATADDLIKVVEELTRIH

For the compound `O=C1CCC(N2Cc3ccc(N4CCC5(CCN(Cc6ccccc6)CC5)C4)cc3C2=O)C(=O)N1` (centres unmarked) [MRT-30568], on Cereblon (CRBN) [1], the IC50 amounted to 60 nM.
In the case of `O=C1CCC(N2Cc3ccc(N4CCC5(CCN(C(=O)c6ccccc6)CC5)C4)cc3C2=O)C(=O)N1` (centres unmarked) [MRT-31619], at Cereblon (CRBN) [2], the IC50 was 14 nM.

As a reminder, the IC50 is the concentration at which inhibition is half-maximal.
